For one series, the system named is AIM2 inflammasome. Description: Inflammasome activation by Poly(dA:dT) stimulation in PMA-differentiated, LPS-treated THP-1 cells (Test 4). The format is cell-based, human. To be noted: Poly(dA:dT)/LyoVec 5 μg/mL stimulation, 8 h, vs Control, Student's t-test, ELISA. On the procedure: (§1) THP1-Null cells (Invivogen) or THP-1 cells (JCRB Cell Bank), which are NLRP3 inflammasome reporter cell lines derived from human monocytic cells, were cultured in a RPMI medium containing 10% FBS and 4.5% glucose (hereinafter referred to as a THP1 culture medium, SIGMA). The cells were treated with 500 nM PMA (SIGMA) for 3 hours to differentiate the cells into macrophages, and the cells were washed with PBS twice and then used for the following experiment.
(§2) The THP1-Null cells or the THP-1 cells after the induction of differentiation were suspended in the THP1 culture medium at 1.0×10^6 cells/mL and seeded in a 96-well microplate at 180 μL per well (1.8×10^5 cells/well). […] The IL-1β concentrations of the culture supernatants were measured using IL-1β reporter cell line HEKBlue (trademark) IL-18/IL-1β cells (Invivogen) or the ELISA method. The caspase-1 concentrations of the culture supernatants were also measured by the ELISA method.
(§3) HEK Blue (trademark) IL-18/IL-1β cells were used for measuring the IL-1β concentrations of the medium supernatants collected after the ATP treatment. […] The absorbance of each well at 655 nm was measured using a microplate reader, and the IL-1β concentration was measured. […]
(§4) Caspase-1 was measured following the TDS of Quantikine (registered trademark) ELISA Human Caspase-1/ICE (R&D systems (trademark)). […]
Background: ELISA stands for enzyme-linked immunosorbent assay.

The test system of series [1] is NLRP3 inflammasome. Kind of series: Inflammasome activation by ATP stimulation in PMA-differentiated, LPS-treated THP1-Null cells (Test 1). The series is classed as cell-based, human. To be noted: ATP 5 mM stimulation, arctigenin at concentrations of 10 μM and higher, 1 h pretreatment, vs Control without arctigenin, Dunnett's test. On the procedure: as §1, §2, §3, §4

For series [2] the following is noted: stated as a fact, no test described; cited from earlier work.
The test system of series [3] is NLRP3 inflammasome. Description: Inflammasome activation by palmitic acid stimulation in PMA-differentiated, LPS-treated THP1-Null cells (Test 2). The format is cell-based, human. To be noted: palmitic acid 500 μM stimulation, 12 h, arctigenin 500 nM pretreatment, vs Control, Student's t-test, ELISA. As to the method:
as §1, §2, §3, §4

The test system of series [4] is NLRP3 inflammasome. Description: Inflammasome activation by MSU stimulation in PMA-differentiated, LPS-treated THP1-Null cells (Test 3). The series is classed as cell-based, human. The settings on record: MSU 100 μg/mL stimulation, 3 h, vs Control, ELISA. As to the method: as §1, §2, §3, §4

For `COc1cc(C[C@H]2C(=O)OC[C@@H]2Cc2ccc(OC)c(OC)c2)ccc1O` [arctigenin], the caspase-1 amount entry in the series on AIM2 inflammasome (arctigenin 250 nM pretreatment, FIG. 8) was “decreased with significance”; in the series with NLRP3 inflammasome [1] (ELISA, FIG. 2), “decreased with significance”; in the series on NLRP3 inflammasome [3] (FIG. 4), “decreased with significance”; with NLRP3 inflammasome [4] (arctigenin pretreatment, FIG. 6), “decreased concentration-dependently”. In addition, the “released IL-1β amount” value with AIM2 inflammasome (arctigenin 500 nM pretreatment, FIG. 7) is “decreased with significance”; in the series on NLRP3 inflammasome [1] (HEK Blue IL-18/IL-1β reporter cells, FIG. 1) it was “decreased with significance”; in the series on NLRP3 inflammasome [3] (FIG. 3) it was “decreased with significance”; in the series with NLRP3 inflammasome [4] (arctigenin at concentrations of 10 μM and higher, Dunnett's test, FIG. 5), “decreased with significance”. For the same molecule, the solubility in water result in series [2] is “insoluble in water”.

(Values after patent US11376235B2, “Inhibitor of inflammasome activation” (KRACIE HOLDINGS, LTD., priority 2016, dated 2022).)
